Where a SMILES comes first, the peptide text is derived from it. Bridges are numbered along the chain shown (N, C = ends). Where no end group is shown, it is not given here.
What follows are compounds tested against T1, rat PAC1 receptor (Rattus norvegicus, UniProt P32215) (assay: LANCE Ultra cAMP accumulation antagonist assay in RG-2 cells;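 further: RG-2 rat glioma cells endogenously expressing PAC1, test peptide preincubated 30 min, then PAC1 agonist added at its EC80 for 15 min, cAMP accumulation read by LANCE Ultra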).
T1 construct: SHSY-5Y (human neuroblastoma cell line) and RG-2 (rat glioma cell line) cells endogenously express human and rat PAC1 receptors, respectively; endogenous in cells; host or cells: RG-2 rat glioma cells
T1 sequence (P32215 20-523): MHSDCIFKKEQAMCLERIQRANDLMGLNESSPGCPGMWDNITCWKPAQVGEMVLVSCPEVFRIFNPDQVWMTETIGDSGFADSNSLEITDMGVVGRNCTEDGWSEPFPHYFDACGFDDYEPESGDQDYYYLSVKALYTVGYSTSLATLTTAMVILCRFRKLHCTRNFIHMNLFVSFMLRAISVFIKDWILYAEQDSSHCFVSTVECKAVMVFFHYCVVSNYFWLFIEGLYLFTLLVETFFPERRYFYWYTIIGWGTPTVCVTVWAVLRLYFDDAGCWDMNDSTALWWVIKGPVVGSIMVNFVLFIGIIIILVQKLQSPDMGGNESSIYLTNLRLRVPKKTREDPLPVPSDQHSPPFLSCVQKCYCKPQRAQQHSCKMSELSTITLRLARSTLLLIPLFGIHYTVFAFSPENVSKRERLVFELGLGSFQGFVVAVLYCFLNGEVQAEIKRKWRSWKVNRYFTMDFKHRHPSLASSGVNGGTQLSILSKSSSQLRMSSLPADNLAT
Format: cell-based

Compared with `CC[C@H](C)[C@H](NC(=O)[C@H](C)NC(=O)[C@H](CCCCN)NC(=O)[C@H](CCCNC(=N)N)NC(=O)[C@H](Cc1ccccc1)NC(=O)[C@H](CCC(N)=O)NC(=O)[C@@H]1CSSC[C@H](N)C(=O)N[C@@H](CC(=O)O)C(=O)N[C@@H](C)C(=O)N[C@@H]([C@@H](C)O)C(=O)N1)C(=O)N[C@@H](CC(=O)O)C(=O)N[C@@H](CC(=O)O)C(=O)N[C@H]1CSSC[C@@H](C(=O)N[C@@H](CCSC)C(=O)N[C@@H](CCCCN)C(=O)N[C@@H](CCC(N)=O)C(=O)N[C@@H](CCCCN)C(=O)N[C@@H](CCCCN)C(=O)N[C@@H](CCCCN)C(=O)N[C@@H](CCC(=O)O)C(=O)N[C@@H](Cc2c[nH]c3ccccc23)C(=O)N[C@@H](CCCCN)C(=O)N[C@@H](C)C(=O)NCC(N)=O)NC(=O)[C@H](C)NC(=O)[C@H](CCCCN)NC(=O)[C@H](Cc2ccccc2)NC(=O)[C@H](C(C)C)NC(=O)[C@H](CO)NC(=O)[C@H](CC(N)=O)NC(=O)[C@H](CO)NC(=O)[C@H](Cc2c[nH]cn2)NC(=O)[C@H](Cc2ccc(O)cc2)NC(=O)[C@H](C)NC(=O)[C@H](CCC(N)=O)NC(=O)[C@H](CCCNC(=N)N)NC(=O)[C@H](C)NC1=O` [compound 429] (H-CDATCQFRKAIDDCARQAYHSNSVFKACMKQKKKEWKAG-NH2; disulfide 1-5, 14-28), “MCDATCQFRKAIDDCQKQAHHSNVPGSVFKACMKQKKKEFKAGHHHHHH (disulfide 2-6, 15-32) [compound 204]” is higher in IC50: less than 0.01 nM for the first, 0.01 to 1 nM for the second.

First: CC[C@H](C)[C@@H]1NC(=O)[C@H](C)NC(=O)[C@H](CCCCN)NC(=O)[C@H](CCCNC(=N)N)NC(=O)[C@H](Cc2ccccc2)NC(=O)[C@H](CCC(N)=O)NC(=O)[C@H](CO)NC(=O)[C@H]([C@@H](C)O)NC(=O)[C@H](C)NC(=O)[C@H](CC(=O)O)NC(=O)[C@@H](N)CSSC[C@@H](C(=O)N[C@@H](Cc2c[nH]cn2)C(=O)O)NC(=O)[C@H](C)NC(=O)[C@H](CCCCN)NC(=O)[C@H](Cc2c[nH]c3ccccc23)NC(=O)[C@H](CCC(=O)O)NC(=O)[C@H](CCCCN)NC(=O)[C@H](CCCCN)NC(=O)[C@H](CCCCN)NC(=O)[C@H](CCC(N)=O)NC(=O)[C@H](CCCCN)NC(=O)[C@H](CCSC)NC(=O)[C@H](CO)NC(=O)[C@H](C)NC(=O)[C@H](CCCCN)NC(=O)[C@H](Cc2ccccc2)NC(=O)[C@H](C)NC(=O)[C@H](CO)NC(=O)[C@H](CC(=O)O)NC(=O)[C@H](CC(=O)O)NC1=O [compound 442] (H-CDATSQFRKAIDDSAFKASMKQKKKEWKACH-OH; disulfide 1-30)
Second: CDATCQFRKAIDDCQKQAHHSNVPGSVFKACMKQKKKEFKAN-NH2 (disulfide 1-5, 14-31) [compound 205]
The IC50 of the first is higher: greater than 100 nM for the first, 0.01 to 1 nM for the second.

Compared with “CDATCQFRKAIDDCQKQAHHSNVPGSVFKACMKQKKKEFKAGA (disulfide 1-5, 14-31) [compound 175]”, `CC[C@H](C)[C@H](NC(=O)[C@H](C)NC(=O)[C@H](CCCCN)NC(=O)[C@H](CCCNC(=N)N)NC(=O)[C@H](Cc1ccccc1)NC(=O)[C@H](CCC(N)=O)NC(=O)[C@@H]1CSSC[C@H](N)C(=O)N[C@@H](CC(=O)O)C(=O)N[C@@H](C)C(=O)N[C@@H]([C@@H](C)O)C(=O)N1)C(=O)N[C@@H](CC(=O)O)C(=O)N[C@@H](CC(=O)O)C(=O)N[C@H]1CSSC[C@@H](C(=O)N[C@@H](CCSC)C(=O)N[C@@H](CCCCN)C(=O)N[C@@H](CCC(N)=O)C(=O)N[C@@H](CCCCN)C(=O)N[C@@H](CCCCN)C(=O)N[C@@H](CCCCN)C(=O)N[C@@H](CCC(=O)O)C(=O)N[C@@H](Cc2c[nH]c3ccccc23)C(=O)N[C@@H](CCCCN)C(=O)N[C@@H](C)C(=O)NCC(=O)N[C@@H](Cc2c[nH]cn2)C(=O)O)NC(=O)[C@H](C)NC(=O)[C@H](CCCCN)NC(=O)[C@H](Cc2ccccc2)NC(=O)[C@H](C)NC(=O)[C@H](C)NC1=O` [compound 443] (H-CDATCQFRKAIDDCAAFKACMKQKKKEWKAGH-OH; disulfide 1-5, 14-20) is higher in IC50: 0.01 to 1 nM for the first, greater than 100 nM for the second.

“CDATCQFRKAIDDCQKQAHHSNVPGSVFKACMKQKKKEFKAGE (disulfide 1-5, 14-31) [compound 173]” and “CDATCQFRKAIDDCQKQAHHSNVPGSVFKACMKQKKKEFKAGGGGS (disulfide 1-5, 14-31) [compound 177]” fall in the same range of IC50: 0.01 to 1 nM for the first, 0.01 to 1 nM for the second.

`CC[C@H](C)[C@H](NC(=O)[C@H](C)NC(=O)[C@H](CCCCN)NC(=O)[C@H](CCCNC(=N)N)NC(=O)[C@H](Cc1ccccc1)NC(=O)[C@H](CCC(N)=O)NC(=O)[C@@H]1CSSC[C@H](N)C(=O)N[C@@H](CC(=O)O)C(=O)N[C@@H](C)C(=O)N[C@@H]([C@@H](C)O)C(=O)N1)C(=O)N[C@@H](CC(=O)O)C(=O)N[C@@H](CC(=O)O)C(=O)N[C@H]1CSSC[C@@H](C(=O)N[C@@H](CCSC)C(=O)N[C@@H](CCCCN)C(=O)N[C@@H](CCC(N)=O)C(=O)N[C@@H](CCCCN)C(=O)N[C@@H](CCCCN)C(=O)N[C@@H](CCCCN)C(=O)N[C@@H](CCC(=O)O)C(=O)N[C@@H](Cc2c[nH]c3ccccc23)C(=O)N[C@@H](CCCCN)C(=O)N[C@@H](C)C(=O)NCC(=O)N[C@@H](Cc2c[nH]cn2)C(=O)O)NC(=O)[C@H](C)NC(=O)[C@H](CCCCN)NC(=O)[C@H](Cc2ccccc2)NC(=O)[C@H](C)NC1=O` [compound 444] (H-CDATCQFRKAIDDCAFKACMKQKKKEWKAGH-OH; disulfide 1-5, 14-19) and `CC[C@H](C)[C@H](NC(=O)[C@H](C)NC(=O)[C@H](CCCCN)NC(=O)[C@H](CCCNC(=N)N)NC(=O)[C@H](Cc1ccccc1)NC(=O)[C@H](CCC(N)=O)NC(=O)[C@H](CO)NC(=O)[C@@H](NC(=O)[C@H](C)N)[C@@H](C)O)C(=O)N[C@@H](CC(=O)O)C(=O)N[C@@H](CC(=O)O)C(=O)N[C@H]1CSSC[C@@H](C(=O)N[C@@H](CCSC)C(=O)N[C@@H](CCCCN)C(=O)N[C@@H](CCC(N)=O)C(=O)N[C@@H](CCCCN)C(=O)N[C@@H](CCCCN)C(=O)N[C@@H](CCCCN)C(=O)N[C@@H](CCC(=O)O)C(=O)N[C@@H](Cc2c[nH]c3ccccc23)C(=O)N[C@@H](CCCCN)C(=O)O)NC(=O)[C@H](C)NC(=O)[C@H](CCCCN)NC(=O)[C@H](Cc2ccccc2)NC(=O)[C@H](C(C)C)NC(=O)[C@H](CO)NC(=O)[C@H](CO)NC(=O)[C@H](Cc2c[nH]cn2)NC(=O)[C@H](Cc2ccc(O)cc2)NC(=O)[C@H](C)NC(=O)[C@H](CCC(N)=O)NC(=O)[C@H](CCCNC(=N)N)NC(=O)[C@H](C)NC1=O` [compound 440] (H-ATSQFRKAIDDCARQAYHSSVFKACMKQKKKEWK-OH; disulfide 12-25) fall in the same range of IC50: 1 to 100 nM for the first, 1 to 100 nM for the second.

Compound “CDATCQFRKAIDDCQKQAHHSNVPGSVFKSCMKQKKKEFKAG-NH2 (disulfide 1-5, 14-31) [compound 207]” has an IC50 of 0.01 to 1 nM.

Reference: patent publication US20210395313A1, “PEPTIDE PAC1 ANTAGONISTS” (AMGEN INC., priority 2017, published 2021)
